According to article PMC8538004, “Identification of a Novel Neuropeptide S Receptor Antagonist Scaffold Based on the SHA-68 Core” (Pharmaceuticals, 2021):
Where two headings read alike, the source gives them in different places.

What was measured:
[1] = Pharmacokinetic study in C57Bl6 mice; type: in vivo, C57/Bl6 mice; conditions: 30 mg/kg i.p.; for Cmax: mouse, ip
Protocol: Animals were administered vehicle (1% n-methyl-2-pyrrolidone (NMP) with 0.5% Tween 80 in 0.5% carboxymethyl cellulose (CMC) in water) or compound 14b dissolved in the same vehicle (30 mg/kg, i.p.), and were euthanized at the appropriate timepoints by isoflurane overdose with decapitation. Trunk blood and brains were taken at 15, 30, 60, 120, and 240 min post-injection. Blood was collected in 5 mL tubes that had been preloaded with 0.5 M EDTA so that the final concentration would be approximately 5 mM. Blood/EDTA was centrifuged at 1000× g at 4 °C for 10 min. Plasma was collected and flash-frozen on dry ice and stored at −80 °C until analysis.
Stock solutions of 14b were prepared and diluted serially to generate standard curve and quality control spiking solutions. The concentrations in plasma and brain homogenate for 14b were 0.5, 1, 5, 10, 50, 100, 500, and 1000 ng/mL for standard curves.
Brains were weighed and homogenized at 1:5 (wt:vol) with 50:50 ethanol:water using a Geno/Grinder 2010 (SPEXSamplePrep, Metuchen, NJ, USA) twice at 1750 rpm for 30 s. Subsequently, 50 µL of plasma or brain homogenate was mixed with 150 µL of acetonitrile containing reserpine as internal standard (100 ng/mL) in a 96-well plate. The plate was shaken at 700 rpm for 3 min and then centrifuged at 4000 rpm for 10 min at 4 C. Then, 50 µL of supernatant was mixed with 50 µL of water in a new plate and analyzed by LC/MS-MS.
A SCIEX Exion AD UHPLC system (Framingham, MA) was used to inject 10 µL of the processed samples/calibration standards onto a Waters Acquity BEH C18 (2.1 mm × 100 mm, […]) column (Milford, MA). Mobile phase A consisted of 0.1% formic acid in water, and mobile phase B consisted of 0.1% formic acid in acetonitrile. […] Quantitation was achieved by multiple reaction monitoring in positive ion mode using an SCIEX 6500+ (Framingham, MA) QTRAP mass spectrometer. Compound 14b was quantitated by monitoring the transition of m/z 445.044 → 251.1, and the internal standard, reserpine, was monitored by m/z 609.300 → 194.9. […]

human NPSR-107I = target: T1, human NPSR-107I (Homo sapiens, UniProt Q6W5P4, N107I); experiment: Ca+2 mobilization assay (apparent Ke against NPS); type: cell-based
T1 construct: expressed in transfected cells
T1 sequence (Q6W5P4 1-371 N107I): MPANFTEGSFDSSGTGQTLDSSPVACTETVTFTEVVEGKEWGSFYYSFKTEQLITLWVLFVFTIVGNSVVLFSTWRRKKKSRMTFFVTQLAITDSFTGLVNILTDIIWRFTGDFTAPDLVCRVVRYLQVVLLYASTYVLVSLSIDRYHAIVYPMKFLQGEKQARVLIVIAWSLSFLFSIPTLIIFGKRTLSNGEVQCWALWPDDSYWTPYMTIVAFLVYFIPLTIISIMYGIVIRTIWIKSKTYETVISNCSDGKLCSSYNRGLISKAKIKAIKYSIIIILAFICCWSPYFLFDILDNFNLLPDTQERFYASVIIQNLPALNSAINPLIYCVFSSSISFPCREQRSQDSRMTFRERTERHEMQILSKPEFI
Protocol: A stable cell line overexpressing the human NPSR-107I was created in CHO-Gαq16 cells (RD-HGA16, Molecular Devices), as previously described. Briefly, CHO-Gαq16 cells were transfected with pcDNA 3.1 human NPSR-107I using Lipofectamine reagent. Transfected cells were plated into 10 cm^2 dishes 24 h post-transfection and were selected using Geneticin. After 2 weeks, individual clones were selected, grown to confluence, and screened in a functional 96-well calcium mobilization assay that measured the response to NPS (100 nM final). […] A final working clone was chosen for all subsequent studies based on NPS potency and the calcium mobilization signal window. CHO-Gα16-hNPSR-107I cells were cultured in Ham’s F12 media supplemented with 10% FBS, 100 units/mL penicillin, 100 μg/mL streptomycin, 200 μg/mL hygromycin, and 400 μg/mL geneticin. Media were purchased from HyClone (GE Life Sciences); FBS, penicillin/streptomycin, hygromycin, and geneticin were purchased from Invitrogen (Thermo Scientific). The day before the assay, cells were plated into 96-well black-walled assay plates at 25,000–40,000 cells/well in growth medium without selection antibiotics. Cells were incubated overnight at 37 °C, 5% CO2. The FLIPR Calcium 5 assay kit (Molecular Devices) was used according to the manufacturer’s instructions with minor modifications. Briefly, reconstituted dye was diluted in pre-warmed assay buffer (HBSS, 20 mM HEPES, 2.5 mM probenecid, pH 7.4 at 37 °C). Growth medium was removed, and the cells were gently washed with assay buffer. Calcium 5 dye was added to the cells and the plate was incubated for 45 min at 37 °C, 5% CO2. A single concentration of test compound and 10-point concentration–response curves of NPS (ranging from 100 nM to 1 pM) were prepared at 10× the desired final concentration. Cells were pretreated with the test compound or vehicle in a final concentration of 0.25% BSA/1% DMSO for 15 min at 37 °C. Assay plates were read with a FlexStation II instrument (excitation at 485 nm, detection at 525 nm, Molecular Devices). Calcium-mediated changes in fluorescence were monitored every 1.5 s over a 90 s time period. NPS was added during the read and the maximum kinetic […] (SoftMax [Max-Min], Molecular Devices) in relative fluorescent units (RFU) was measured. Data were fitted to a three-parameter logistic curve to generate EC50 values (GraphPad Prism 6.0). Antagonism was quantified by measuring the ratio of equi-active concentrations of agonist measured in the presence or absence of the antagonist. Apparent Ke values were calculated using the equation Ke = [L]/((EC50^+/EC50^−) − 1), where [L] is the concentration of test compound, EC50^+ is the EC50 of NPS with test compound, and EC50^– is the EC50 of NPS alone. Ke values were considered valid when the EC50^+/EC50^− ratio was at least 4. HBSS and HEPES were purchased from Gibco (Thermo Scientific); probenecid, BSA, and DMSO were purchased from Sigma-Aldrich.

Clearance in plasma [1]: 288 mL/min/kg | Cmax ([1]; brain, read-out: Cmax in brain): 186 ng/mL | Cmax ([1]; plasma, read-out: Cmax in plasma): 1940 ng/mL | Shift of the agonist activity of NPS (human NPSR-107I; 3 µM concentration, calcium mobilization assay): significant right shift | Kb (human NPSR-107I; Calcium Mobilization, CHO-Gα16-hNPSR-107I cells, shift of NPS EC50): 71.4 nM | Potency relative to SHA-68 (human NPSR-107I; in vitro antagonist potency): approximately sevenfold less potent
SMILES: CC(C)CC1(c2ccccc2)OC(=O)C2=C1CN(C(=O)NCc1ccccc1)CC2 (single isomer, unassigned; (+)) [Compound 14b, (+) N-benzyl-3-(2-methylpropyl)-1-oxo-3-phenyl-1H,3H,4H,5H,6H,7H-furo[3,4-c]pyridine-5-carboxamide]
